One assay relates to HCT-116. Nature of the assay: Cytotoxicity against human HCT116 cells by MTT assay. It is filed as functional, cell-based.
Assay [1] concerns B-CLL. Briefly: Inhibition of spliceosome-mediated splicing of DNAJB1 gene in human B-CLL cells at 0.1 uM after 4 hrs by RT-PCR analysis. It is filed as cell-based.
Assay [2] in a line: Induction of apoptosis in human CLL cells by 3,3'-dihexyloxacarbocyanine iodide staining-based flow cytometry. It is filed as functional, cell-based.
Assay [3] deals with B-CLL. Nature of the assay: Inhibition of spliceosome-mediated splicing of DNAJB1 gene in human B-CLL cells at 10 uM after 4 hrs by RT-PCR analysis. It is filed as cell-based.
The test system of assay [4] is B-CLL. Briefly: Inhibition of spliceosome-mediated splicing of DNAJB1 gene in human B-CLL cells at 0.1 to 1.0 uM after 4 hrs by RT-PCR analysis. It is filed as cell-based.

The source made the active and inactive calls. The rule behind the calls is not given here.

14 compounds from ChEMBL document CHEMBL2417526, “Stabilized cyclopropane analogs of the splicing inhibitor FD-895” (J Med Chem, 2013) can be followed below.

With `CC[C@H](OC)[C@@H](C)[C@H]1O[C@@H]1[C@H](OC(C)=O)[C@H](C)/C=C/C=C(\C)[C@H]1OC(=O)C[C@H](O)CC[C@@](C)(O)[C@@H](OC(C)=O)/C=C/[C@@H]1C`, the IC50 (usually the concentration that inhibits the measured activity by half) with HCT-116 came out at 142 nM.

In the assay on HCT-116, `CC[C@H](OC)[C@@H](C)[C@H]1O[C@@H]1[C@@H](O)[C@H](C)/C=C/C=C(\C)[C@H]1OC(=O)C[C@H](O)CC[C@@](C)(O)[C@@H](OC(C)=O)/C=C/[C@@H]1C` displayed an IC50 of 0.8 nM.

In the assay with HCT-116, `CC[C@H](OC)[C@@H](C)[C@H]1O[C@@H]1[C@@H](O)[C@H](C)/C=C/C=C(\C)[C@H]1OC(=O)C[C@H](O)CCCC/C=C/[C@@H]1C` displayed a half-inhibitory concentration (IC50) of more than 50000 nM.

For the compound `CC[C@H](OC)[C@@H](C)[C@H]1O[C@@H]1[C@H](O)[C@H](C)/C=C/C=C(\C)[C@H]1OC(=O)C[C@H](O)CC[C@@](C)(O)[C@@H](OC(C)=O)/C=C/[C@@H]1C`, the result in the assay with B-CLL [1] was Active. For the same compound, the IC50 in the assay with HCT-116 stood at 23.5 nM; in assay [2], 2.1 nM.

In the case of `CC[C@H](OC)[C@@H](C)[C@H]1O[C@@H]1[C@@H](O)[C@@H](C)/C=C/C=C(\C)[C@H]1OC(=O)C[C@H](O)CC[C@@](C)(O)[C@@H](OC(C)=O)/C=C/[C@@H]1C`, the IC50 was 23 nM in the assay with HCT-116 and more than 50000 nM in assay [2].

As to `CC[C@H](OC)[C@@H](C)[C@H]1O[C@@H]1[C@H](O)[C@@H](C)/C=C/C=C(\C)[C@H]1OC(=O)C[C@H](O)CC[C@@](C)(O)[C@@H](OC(C)=O)/C=C/[C@@H]1C`, the IC50 was found to be 3.7 nM with HCT-116 and 109 nM in assay [2].

`CC[C@H](O)[C@@H](C)[C@H]1O[C@@H]1C[C@H](C)/C=C/C=C(\C)[C@H]1OC(=O)CCCCCC/C=C/[C@@H]1C`: in the assay with HCT-116, the IC50 was more than 50000 nM.

As for `CC[C@H](OC)[C@@H](C)[C@H]1O[C@@H]1[C@H](OC(C)=O)[C@H](C)/C=C/C=C(\C)[C@H]1OC(=O)C[C@H](OC(C)=O)CC[C@@](C)(O)[C@@H](OC(C)=O)/C=C/[C@@H]1C`, in the assay with HCT-116, the IC50 turned out to be 542 nM. This counts as sub-micromolar.

As to `Nc1nc(F)nc2c1ncn2[C@@H]1O[C@H](CO)[C@@H](O)[C@@H]1O`, the outcome in the assay with B-CLL [3] was inactive.

Compound `CC[C@H](O)[C@@H](C)[C@H]1O[C@@H]1C[C@H](C)/C=C/C=C(\C)[C@H]1OC(=O)CCCCCC/C=C/[C@H]1C` registered an IC50 with HCT-116 of more than 50000 nM.

With `CC[C@H](OC)[C@@H](C)[C@H]1C[C@@H]1[C@@H](O)[C@H](C)/C=C/C=C(\C)[C@H]1OC(=O)C[C@H](O)CC[C@@](C)(O)[C@@H](OC(C)=O)/C=C/[C@@H]1C`, the result in the assay with B-CLL [1] and with B-CLL [4] was Active. Moreover, the IC50 stood at 42.9 nM in the assay with HCT-116 and 103 nM in assay [2].

For `CC[C@H](OC)[C@@H](C)[C@H]1C[C@@H]1[C@@H](O)[C@@H](C)/C=C/C=C(\C)[C@H]1OC(=O)C[C@H](O)CC[C@@](C)(O)[C@@H](OC(C)=O)/C=C/[C@@H]1C`, the IC50 with HCT-116 came to 82.3 nM.

In turn, `CC[C@H](OC)[C@@H](C)[C@H]1O[C@@H]1[C@@H](O)[C@H](C)/C=C/C=C(\C)[C@H]1OC(=O)CCCCCC/C=C/[C@@H]1C` returned an IC50 in the assay on HCT-116 of more than 50000 nM.

In the case of `CC[C@H](O)[C@@H](C)[C@H]1O[C@@H]1C[C@H](C)/C=C/C=C(\C)[C@H]1OC(=O)C[C@H](O)CC[C@@](C)(O)[C@@H](OC(C)=O)CC[C@@H]1C` [PLADIENOLIDE B], the result with B-CLL [1] was Active. For the same compound, the IC50 in the assay on HCT-116 came out at 24.8 nM; in assay [2] it was 30.5 nM.
